From patent publication US20260373132A1, “PERK INHIBITORHC-5404 IN COMBINATION WITH ANTI-PD-1 ANTIBODY AND/OR AN ANTIANGIOGENETIC AGENT FOR USE IN THE TREATMENT OF CANCER” (HIBERCELL, INC., priority 2022, published 2026)

Legend:
468 unique kinases = assay: KINOMEScan biochemical panel assay; assay type: binding, human
Description: (§1) The selectivity of HC-5404 against the broader kinome was then evaluated using a KINOMEScan biochemical panel assay that measured binding against 468 unique kinases, including 403 wild-type human kinases and 59 mutant isoforms.

BLK = BLK (Homo sapiens, UniProt P51451); assay: KINOMEScan biochemical panel assay, BLK; assay type: binding; settings: 1000 nM
Description: as §1

RIOK2 = RIOK2 (Homo sapiens, UniProt Q9BVS4); assay: KINOMEScan biochemical panel assay, RIOK2; assay type: binding; settings: 1000 nM
Description: as §1

ATF4 levels in HEK293 = assay: HEK293 cell-based ATF4 western blot; settings: Homo sapiens; HEK293, tunicamycin 1 μM
Description: Cell based assays HEK293 cells were plated at 1×10^6 cells per well and treated with HC-5404 30 minutes prior to addition of tunicamycin (1 μM) to induce ER stress. Cells were harvested 4 hours following tunicamycin addition and lysed for western blotting in RIPA buffer supplemented with protease and phosphatase inhibitors. Total protein concentrations were determined by BCA and […] of protein were loaded on to SDS-PAGE gels, transferred to nitrocellulose and probed with a primary antibody against phosphorylated T-982 of human PERK or total ATF4 followed by incubation with an infrared labelled secondary antibody. Blots were imaged on a LiCor imager and normalized to total protein in the wells using Revert™ stain. Band intensities were quantified and normalized to DMSO treated samples. Normalized band intensities were plotted as percent inhibition against 10-point; 3-fold dilution series of HC-5404. IC50 values were calculated using 4-parameter logistical fitting in XLFit.
The cell-based activity of HC-5404 was evaluated using HEK293 treated with tunicamycin (Tm; 1 μM) to induce ER stress.

[1] = mouse plasma pharmacokinetics after single oral administration; assay type: in vivo
Description: Initial in vivo studies aimed at understanding the pharmacokinetic and pharmacodynamic (PK/PD) relationship and optimizing the dosing regimen were conducted. HC-5404 was quantified from mouse plasma following a single oral administration (PO) at doses ranging from 3 to 100 mg/kg. […] Mouse plasma protein binding (PPB %) was determined to be 95.6%, which enabled us to calculate the free drug plasma exposure across time (FIG. 18).

pPERK in 786-O tumors = assay: pPERK in 786-O tumor xenografts; assay type: in vivo, mouse
[2] = system: ASNS, CBS and CTH in 786-O tumors; assay: ASNS, CBS and CTH in 786-O tumors; assay type: in vivo, mouse; settings: HC-5404 treatment (FIG. 29)
Description: (§2) Samples were put in 500 μL of Novex lysis buffer consisting of 2× Novex Tris-Glycine SDS sample buffer (ThermoFisher LC2676), 1× Phosphatase Inhibitor Cocktail III (Sigma P0044), 1× PhosphataseArrest I (Gbioscience 113P-D), 1×2-mercaptoethanol (Gibco 21985023), 1× Benzonase (EMD Millipore Corp 70746-3), and 1× Protease inhibitor cocktail tablet (Roche/Sigma 11836170001). Samples were homogenized with the Polytron and heated for 10 min at 95 °C. They were then centrifuged at max speed for 10 min and the supernatant was transferred. Protein concentrations of samples were measured using the Pierce 660 nm Protein assay kit (Thermo Scientific 22660) according to the manufacturer's instructions.
(§3) Western Blot analysis was performed on the SimpleWestern high-throughput protein analysis platform (ProteinSimple 004-650) according to manufacturer's protocol using a 12-230 kDA Separation Module (ProteinSimple SM-W004) and Total Protein Detection Module (ProteinSimple DM-TP01). Antibodies used were: (Add info for other antibodies used) pPERK (Lilly; 1:50) and PERK (Cell Signaling Technology 5683; 1:200). All protein analytes were normalized to total protein loaded on capillary.
The effect of HC-5404 was further validated in tumors by assessing the response of markers of in vivo PERK inhibition. […]

pPERK in Caki-1 tumors = assay: pPERK in Caki-1 tumor xenografts; assay type: in vivo, mouse
Description: as §2
as §3, with “capillary. […]” for “capillary.”

HMGB1 in 786-O xenograft = assay: HMGB1 IHC in 786-O xenografts; assay type: in vivo, mouse; settings: 30 mg/kg, compared to vehicle (FIG. 4D)
Description: 786-O tumor cells were maintained in vitro with MEM medium supplemented with 10% heat inactivated fetal bovine serum and 0.01 mM NEAA, at 37 °C in an atmosphere of 5% CO2. Each mouse was inoculated subcutaneously at the right front region with 786-O tumor cells (5×106) in 0.1 ml of PBS (1:1 matrigel) for tumor development. The randomization for efficacy study began when the mean tumor size reached approximately 200-300 mm^3, preferably to initiate with 250 mm^3. […]
Paraffin sections of tumor samples were stained on slides for HMGB1 using the Abcam antibody (cat #ab18256) and chromogenic DAB staining on Bond Rx (Leica Biosystems). The slides were digitized by Leica AT2 slide scanner with 40× objective. The scanned images were analyzed using custom-written macro in ImageJ/FIJI (NIH) to measure nuclear and non-nuclear signal (FIGS. 4C and 4D).

SMTCA75 = assay: RCC PDX single animal trial, SMTCA75; assay type: in vivo, mouse; settings: HC-5404 30 mg/kg PO BID, n=1
Description: (§4) This example investigated the effect of HC-5404 in combination with VEGFR-TKIs in inhibiting tumor growth using 12 RCC PDX tumor models, following procedures analogous to those described above.
(§5) Single animal per group (n=1) trial of animals harboring diverse RCC PDX models were used in this study.

RXF-2667 = assay: RCC PDX single animal trial, RXF-2667; assay type: in vivo, mouse; settings: HC-5404 30 mg/kg PO BID, n=1
Description: as §4, §5

[3] = 30 mg/kg PO BID, seven days (FIG. 30)

BLK, sequence (P51451 whole entry): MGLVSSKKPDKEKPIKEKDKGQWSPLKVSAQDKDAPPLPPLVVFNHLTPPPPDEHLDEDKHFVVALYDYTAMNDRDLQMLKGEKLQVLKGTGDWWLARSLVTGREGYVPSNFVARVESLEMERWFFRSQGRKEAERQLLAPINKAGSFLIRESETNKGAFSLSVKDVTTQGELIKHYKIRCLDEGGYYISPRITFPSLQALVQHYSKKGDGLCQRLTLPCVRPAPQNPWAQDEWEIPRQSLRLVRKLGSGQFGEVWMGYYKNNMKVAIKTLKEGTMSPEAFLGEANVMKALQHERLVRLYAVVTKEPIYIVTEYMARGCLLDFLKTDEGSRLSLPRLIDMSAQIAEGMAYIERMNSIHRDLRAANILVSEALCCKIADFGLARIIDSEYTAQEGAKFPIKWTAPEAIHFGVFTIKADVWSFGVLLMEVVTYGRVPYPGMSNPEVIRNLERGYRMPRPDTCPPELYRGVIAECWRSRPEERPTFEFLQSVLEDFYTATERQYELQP
RIOK2, sequence (Q9BVS4 whole entry): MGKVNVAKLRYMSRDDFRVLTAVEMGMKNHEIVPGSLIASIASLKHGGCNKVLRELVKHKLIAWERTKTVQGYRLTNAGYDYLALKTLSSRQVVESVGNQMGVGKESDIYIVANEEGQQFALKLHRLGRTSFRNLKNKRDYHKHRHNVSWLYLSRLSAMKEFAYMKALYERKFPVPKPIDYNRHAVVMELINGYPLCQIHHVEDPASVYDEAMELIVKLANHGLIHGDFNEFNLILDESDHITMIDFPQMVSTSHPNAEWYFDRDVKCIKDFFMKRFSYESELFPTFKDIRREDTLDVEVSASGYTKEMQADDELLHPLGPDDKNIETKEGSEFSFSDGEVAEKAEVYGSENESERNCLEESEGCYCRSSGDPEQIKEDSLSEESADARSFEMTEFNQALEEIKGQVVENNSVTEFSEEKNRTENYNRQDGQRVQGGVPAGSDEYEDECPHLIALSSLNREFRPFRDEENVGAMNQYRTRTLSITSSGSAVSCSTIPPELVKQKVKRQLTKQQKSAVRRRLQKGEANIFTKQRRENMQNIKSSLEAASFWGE

inhibition of BLK (BLK): inhibited
inhibition of RIOK2 (RIOK2): inhibited
free drug (unbound) plasma exposure at Cmax / 1 h ([1]; PO, 30 mg/kg): 355 nM
concentration at 1 h ([1]; plasma, PO, 30 mg/kg): 3670 ng/mL
concentration at 12 h ([1]; plasma, single PO, 100 mg/kg, read-out: plasma exposure up to 12 h after dosing): > 3200 ng/mL
Tmax ([1]; plasma, single PO, 3 to 100 mg/kg, read-out: time of Cmax): < 1 h
unbound plasma concentration at Cmax ([1]; single PO, 100 mg/kg): 1605 nM
unbound plasma exposure up to 12 h after dosing ([1]; single PO, 100 mg/kg): > 311 nM
average half-life ([1]; single PO, 3 to 100 mg/kg): 2.22 h
dose proportionality of exposure ([1]; single PO, up to 100 mg/kg): Dose-proportional increases in exposure
SMILES: Cc1cc(NC(=O)[C@H](O)c2cc(F)cc(F)c2)ccc1-c1cnc(N)c(C(=O)NC(C)C)c1 [HC-5404, (R)-2-amino-5-(4-(2-(3,5-difluorophenyl)-2-hydroxyacetamido)-2-methylphenyl)-N-isopropylnicotinamide]
interactions in kinome panel (468 unique kinases; 100 nM, PERK not in panel): no interactions observed
number of kinases inhibited >65% (468 unique kinases; 10,000 nM): 9 kinases
IC50 (ATF4 levels in HEK293): 115 nM
pPERK expression in 786-O (pPERK in 786-O tumors; [3]): strongly inhibited pPERK expression
time of return of pPERK to baseline in 786-O tumors (pPERK in 786-O tumors; 30 mg/kg, post dose): ≤ 8 h
pPERK levels in 786-O (pPERK in 786-O tumors; DC-101 study, 4 days of treatment (FIG. 37)): inhibited the pPERK signal
inhibition at 30 mg/kg (pPERK in 786-O tumors; Mus musculus, 786-0, 30 mg/kg, 1 h post dose): ~90%
VEGFR-TKI-induced pPERK accumulation in 786-O tumors (pPERK in 786-O tumors; PD arm, 7 days, HC-5404 in combination with VEGFR-TKIs): inhibited by the addition of HC-5404
accumulation of ASNS, CBS and CTH [2]: dose-dependent accumulation of ASNS, CBS and CTH
pPERK expression in Caki-1 (pPERK in Caki-1 tumors; [3]): strongly inhibited pPERK expression
pPERK levels in Caki-1 (pPERK in Caki-1 tumors; DC-101 study, 4 days of treatment, low signal-to-noise (FIG. 37)): not affected
HMGB1 cytoplasmic expression (HMGB1 in 786-O xenograft): induced
antitumor efficacy as monotherapy (SMTCA75): exhibited antitumor efficacy
antitumor efficacy as monotherapy (RXF-2667): exhibited antitumor efficacy
